The nature of series [1]: plasma pharmacokinetics after oral administration. Format: in vivo, Male CD-1 mice. The method, then:
(§1) [drawing 435] are described below. Plasma concentrations were measured in mice after oral and IV administration. Both oral and IV doses were formulated in saline. Male CD-1 mice were dosed after an overnight fast and fed 4 hours post-dose.
[…] The plasma concentration of 139 was measured at 0 min, 30 min, 1 h, 3 h, 6 h, 12 h, and 24 h time points. As discussed above for the i.v. administration, the analyte was extracted and analyzed by HPLC/mass spec.

Series [2] is described as follows: plasma pharmacokinetics after IV administration. The class given is in vivo, Male CD-1 mice. The following applies: single IV dose 5 mg/kg. The method, then:
as §1
A single IV dose of 139 was administered to male CD-1 mice intravenously at 5 mg/kg (dose volume of 3 mL/kg). The plasma concentration of 139 was measured at 0 min, 5 min, 15 min, 30 min, 1 h, 3 h, 6 h, and 12 h time points. A liquid-liquid extraction procedure was used to isolate the analyte and internal standard from mice plasma. After the extract was dried and reconstituted, the sample was directly injected into a liquid chromatography/mass spectrometry (LC/MS) system. HPLC conditions were as follows: • HPLC System: Shimadzu SCL-10 System • Analytical Column: Aquasil C18 5 μm 50×2.1 mm column. • Column Temperature: Ambient temperature • Autosampler Temperature: Ambient temperature • Mobile Phase A) 10 mM Ammonium formate in water (pH4). • B) Acetonitrile. • Flow Rate: 0.6 mL/min • Injection Volume: 4 μL • Gradient:
• Mass spectrometry conditions were as follows: • Instrument: ABI Sciex API 4000 • Mode: ESI+ • Experiment: MRM (multiple reaction monitoring) • Transitions: 139: m/z 480.1→127.1 (Rt=3.8 minute)

In series [3] the test system is lung cancer cell line A549. Kind of series: tumor growth inhibition, A549. Format: cell-based, Human. The following applies: Homo sapiens, A549, A549 (Lung) cells. The text has this:
(§2) Growth Inhibition. […] T1 values≤T0 values were designated as T, cytotoxicity.

Series [4] deals with wild-type aywl strain of HBV. Kind of series: HBV primary assay (HepG2-2.2.15 antiviral assay). Format: cell-based. The conditions noted are these: Test Concentration 1 μM. The method, then: The HBV primary assay developed was conducted similarly to that described by Korba et al., (Antiviral Res. 15: 217-228 (1991) and Antiviral Res. 19: 55-70 (1992)) with the exception that viral DNA detection and quantification have been improved and simplified (Korba et al., Antiviral Res. 19: 55-70 (1992)).
Compound 38 (KX2-377), Compound 136 (KX2-393), and Compound 137 (KX2-394) were evaluated for potential anti-HBV activity using a single high-test concentration of compounds in the standardized HepG2-2.2.15 antiviral assay. The HepG2-2.2.15 is a stable cell line producing high levels of the wild-type aywl strain of HBV. Briefly, HepG2-2.2.15 cells were plated in 96-well plates. Only the interior wells were utilized to reduce “edge effects” observed during cell culture; the exterior wells are filled with complete medium to help minimize sample evaporation. On the following day, the confluent monolayer of HepG2-2.2.15 cells was washed and the medium is replaced with complete medium containing test concentrations of a test article in triplicate. 3TC was used as the positive control, while media alone was added to cells as the untreated control. Three days later the culture medium was replaced with fresh medium containing the appropriately diluted drug. Six days following the initial administration of the test compound, the cell culture supernatant was collected, treated with pronase and DNAse and then used in a real-time quantitative TaqMan PCR assay for direct measurement of HBV DNA copies using an ABI Prism 7900 sequence detection system (Applied Biosystems, Foster City, Calif.).
The antiviral activity of each test compound was calculated by comparing its HBV DNA copies against that of the untreated control cells (100%) to derive percent inhibition level. After removing the supernatant, the remaining cells were subject to CellTiter 96 Aqueous One (Promega, Madison, Wis.) solution cell proliferation assay (MTS-based) to measure cell viability. Cytotoxicity of the compound was determined by comparing its cell viability with that of the untreated cell control to derive percentage of the cell control.

The subject of series [5] is GL261 glioma cells. Briefly: intracranial GL261 glioma survival study. Format: in vivo, C57BL/6 mice. The conditions noted are these: 5 mg/kg weekly ×1 oral; C57BL/6 mice, intracranial GL261. The method, then: (§3) A brain tumor mouse xenograft study was conducted comparing KX2-361 and KX2-391 (KXO1) to Temodar®. The studies were conducted in C57BL/6 mice. GL261 glioma cells (1×10^5 in 5 μl DMEM) were implanted intracranial coordinates: bregma, lateral 2.0 mm, anterior 1.2 mm, 3.0 mm depth dura. Treatment was initiated 3 days post implantation. The groups were as follows (all doses in 100 μl H2O):
The median survival range and the log-rank (Mantel-Cox) statistical test results comparing the survival distributions of the samples.

Series [6] can be described thus: body weight in GL261 glioma survival study. Format: in vivo. The conditions noted are these: Temodar 5 mg/kg, C57BL/6 mice. The method, then:
as §3
FIGS. 49A-E show the weight gain in each of the C57BL/6 mice in the different treatment groups. The average weight at endpoint for each of the treatment groups is shown below in Table 30. FIG. 50 is a graph showing the average weights over a 40-day period for each of the treatment groups.

Series [7] addresses isolated Src (Homo sapiens, UniProt P12931). Briefly: titration against isolated Src. Format: biochemical. The conditions noted are these: titration data.
For series [8], the system named is c-Src 3T3 cells. Kind of series: BrdU cell growth inhibition, c-Src 3T3. The class given is cell-based, mouse. The following applies: Mus musculus; c-Src 3T3 (c-Src527F/NIH3T3) cells; read-out: GI50. The method in brief:
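c-Src 3T3 cells on poly-D-lysine plates in DMEM with 2% FBS, L-glutamine, pyruvate and 10 mM HEPES. Compounds came from 20 mM DMSO stocks diluted in DMEM/10% FBS. Proliferation was read by colorimetric BrdU-incorporation ELISA, and GI50 was extrapolated from growth relative to time-zero and untreated controls.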

For series [9], the target named is isolated FAK (Homo sapiens, UniProt Q05397). Kind of series: titration against isolated FAK. Format: biochemical. The following applies: titration data.
isolated FAK, sequence (Q05397 whole entry): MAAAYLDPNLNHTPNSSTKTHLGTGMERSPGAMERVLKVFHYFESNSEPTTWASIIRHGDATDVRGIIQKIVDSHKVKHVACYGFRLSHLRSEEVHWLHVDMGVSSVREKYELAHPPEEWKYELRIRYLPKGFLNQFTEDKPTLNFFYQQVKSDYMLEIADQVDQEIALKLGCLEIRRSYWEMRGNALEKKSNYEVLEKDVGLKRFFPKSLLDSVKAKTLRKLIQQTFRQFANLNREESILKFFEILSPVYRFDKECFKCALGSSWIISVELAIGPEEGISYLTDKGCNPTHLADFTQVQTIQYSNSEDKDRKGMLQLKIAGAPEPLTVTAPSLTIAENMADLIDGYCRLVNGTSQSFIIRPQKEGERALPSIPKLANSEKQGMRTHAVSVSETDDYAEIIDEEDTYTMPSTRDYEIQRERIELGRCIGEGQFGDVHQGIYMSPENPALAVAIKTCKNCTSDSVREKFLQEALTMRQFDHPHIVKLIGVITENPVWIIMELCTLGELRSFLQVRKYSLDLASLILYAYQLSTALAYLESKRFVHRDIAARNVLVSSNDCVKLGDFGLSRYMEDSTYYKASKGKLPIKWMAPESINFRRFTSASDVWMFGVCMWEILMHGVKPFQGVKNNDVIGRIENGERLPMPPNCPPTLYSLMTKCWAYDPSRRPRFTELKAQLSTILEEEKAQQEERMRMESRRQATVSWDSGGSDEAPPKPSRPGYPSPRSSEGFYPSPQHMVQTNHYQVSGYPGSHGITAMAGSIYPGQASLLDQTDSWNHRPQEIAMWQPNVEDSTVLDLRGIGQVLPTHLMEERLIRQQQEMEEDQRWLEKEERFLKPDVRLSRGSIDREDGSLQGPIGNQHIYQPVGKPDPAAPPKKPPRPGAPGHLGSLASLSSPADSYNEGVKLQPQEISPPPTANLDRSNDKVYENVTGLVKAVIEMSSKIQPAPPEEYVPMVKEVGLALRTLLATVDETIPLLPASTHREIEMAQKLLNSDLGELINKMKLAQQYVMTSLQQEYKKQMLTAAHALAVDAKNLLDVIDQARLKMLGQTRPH
Series [10] concerns SKOV-3 (Ovarian). Briefly: growth inhibition (BrdU), SKOV-3. The following applies: Homo sapiens, SK-OV-3; SKOV-3 (Ovarian) cells. The class given is cell-based, Human.
Description: as §2

The subject of series [11] is L3.6pl cells. Briefly: growth inhibition (BrdU), L3.6pl. The following applies: Homo sapiens, L3.6pl, L3.6pl (Pancreas) cells, single agent. The class given is cell-based, human. The text has this: L3.6pl cells are previously described in Trevino et al. Am J Pathol.
The mark [12] stands for this setting: male, CD-1, mouse, single oral dose 25 mg/kg.

Data on 7 compounds can be found in US10196357B2, “Biaryl compositions and methods for modulating a kinase cascade” (Athenex, Inc., priority 2007, dated 2019).

Values joined by “and” are separate entries in the source; they are usually repeats but may differ in a detail not shown here. Equal values may be shown once. Read-outs that look alike come from different tables or passages of the source. A value given as a limit tells only on which side of the number the result lay.

isolated Src, sequence (P12931 whole entry): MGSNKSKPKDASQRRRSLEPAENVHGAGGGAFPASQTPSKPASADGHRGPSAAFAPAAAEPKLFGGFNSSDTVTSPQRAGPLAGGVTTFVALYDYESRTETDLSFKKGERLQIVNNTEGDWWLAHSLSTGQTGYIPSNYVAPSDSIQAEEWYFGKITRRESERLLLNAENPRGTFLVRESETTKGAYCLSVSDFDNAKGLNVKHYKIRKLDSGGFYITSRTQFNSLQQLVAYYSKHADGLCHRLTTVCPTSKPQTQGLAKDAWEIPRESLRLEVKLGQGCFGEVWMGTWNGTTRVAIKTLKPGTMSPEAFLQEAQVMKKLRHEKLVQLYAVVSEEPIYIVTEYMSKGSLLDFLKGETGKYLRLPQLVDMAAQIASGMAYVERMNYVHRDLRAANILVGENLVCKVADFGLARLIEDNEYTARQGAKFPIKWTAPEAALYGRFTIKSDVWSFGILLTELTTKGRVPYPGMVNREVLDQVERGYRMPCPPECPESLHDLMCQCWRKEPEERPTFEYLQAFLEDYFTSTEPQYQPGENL

Take `CN1CCN(CCOc2ccc(-c3ccc(CC(=O)NCc4cccc(F)c4)cc3)c(F)c2)CC1` [Compound 139, 2-(2′-fluoro-4′-(2-(4-methylpiperazin-1-yl)ethoxy)biphenyl-4-yl)-N-(3-fluorobenzyl)acetamide]: the bioavailability in [1] (male, CD-1, mouse, (Mean AUC0-∞ oral/oral dose)/(Mean AUC0-∞ IV/IV dose)×100%, 25 mg/kg oral, 5 mg/kg IV, read-out: Estimated bioavailability) is 34.4%. For the same compound, the concentration at 30 min is 318 ng/mL in series [1] (male, CD-1, mouse, po, 25 mg/kg, single PO dose 25 mg/kg, 30 min, read-out: Plasma Concentrations, Mean); 500 ng/mL in series [2] (male, CD-1, mouse, plasma, iv, 5 mg/kg, 30 min, read-out: Plasma Concentrations, Group A, B, C); 382 ng/mL in series [2] (male, CD-1, mouse, plasma, iv, 5 mg/kg, 30 min, read-out: Plasma Concentrations, Mean). The concentration at 1 h in series [1] (male, CD-1, mouse, po, 25 mg/kg, single PO dose 25 mg/kg, 1 hr, read-out: Plasma Concentrations, Mean) stood at 142 ng/mL; in series [2] (male, CD-1, mouse, plasma, iv, 5 mg/kg, 1 hr, read-out: Plasma Concentrations, Group A, B, C), 186 ng/mL; in series [2] (male, CD-1, mouse, plasma, iv, 5 mg/kg, 1 hr, read-out: Plasma Concentrations, Mean), 178 ng/mL. For the same compound, the concentration at 3 h in [1] (male, CD-1, mouse, po, 25 mg/kg, single PO dose 25 mg/kg, 3 hr, read-out: Plasma Concentrations, Mean) was determined as 330 ng/mL; in [2] (male, CD-1, mouse, plasma, iv, 5 mg/kg, 3 hr, read-out: Plasma Concentrations, Mean), 207 ng/mL. The concentration at 6 h in series [1] (male, CD-1, mouse, po, 25 mg/kg, single PO dose 25 mg/kg, 6 hr, read-out: Plasma Concentrations, Mean) worked out at 119 ng/mL; in [2] (male, CD-1, mouse, plasma, iv, 5 mg/kg, 6 hr, read-out: Plasma Concentrations, Mean) it was 43.2 ng/mL. In addition, the concentration at 12 h in series [1] (male, CD-1, mouse, po, 25 mg/kg, single PO dose 25 mg/kg, 12 hr, read-out: Plasma Concentrations, Mean) stood at 56.6 ng/mL; in [2] (male, CD-1, mouse, plasma, iv, 5 mg/kg, BLQ = 0, read-out: Plasma Concentrations, Mean), 3.67 ng/mL; in series [2] (male, CD-1, mouse, plasma, iv, 5 mg/kg, read-out: Plasma Concentrations, Group A, B, C), 11 ng/mL. For the same compound, the concentration at 24 h in series [1] (male, CD-1, mouse, po, 25 mg/kg, single PO dose 25 mg/kg, BLQ = 0, read-out: Plasma Concentrations, Mean) came to 15.6 ng/mL; in series [1] (male, CD-1, mouse, po, 25 mg/kg, single PO dose 25 mg/kg, read-out: Plasma Concentrations, Group A, B, C), 31.2 ng/mL. In addition, the AUC(0-inf) turned out to be 2440 ng·h/mL in series [1] (setting [12]) and 1420 ng·h/mL in [2] (male, CD-1, mouse, plasma). The AUC(0-t) was 2300 ng·h/mL in series [1] (setting [12]) and 1410 ng·h/mL in series [2] (male, CD-1, mouse, plasma). Further, the peak level in [1] (setting [12]) (Cmax) was 330 ng/mL. Moreover, the MRT was 7.7 h in [1] (setting [12]) and 2.3 h in [2] (male, CD-1, mouse, plasma). In [1] (setting [12]), the Tmax amounted to 3 h. Besides, the half-life in series [1] (male, CD-1, mouse, single oral dose 25 mg/kg, estimated from 6, 12, 24 hours) is 6.2 h; in [2] (male, CD-1, mouse, plasma, estimated from 3, 6, 12 hours) it was 1.6 h. Also, the “% AUC Extrap” value in series [1] (single oral dose 25 mg/kg) turned out to be 5.7%; in series [2] (plasma), 0.6%. The “AUC0-∞/Dose” value in [1] (single oral dose 25 mg/kg) was 97.6 kg·ng·h/mL/mg; in [2] (plasma), 284.1 kg·ng·h/mL/mg. The concentration at 5 min is 1200 ng/mL in [2] (male, CD-1, mouse, plasma, iv, 5 mg/kg, 5 min, read-out: Plasma Concentrations, Group A, B, C) and 1250 ng/mL in series [2] (male, CD-1, mouse, plasma, iv, 5 mg/kg, 5 min, read-out: Plasma Concentrations, Mean). In addition, the concentration at 15 min turned out to be 273 ng/mL in [2] (male, CD-1, mouse, plasma, iv, 5 mg/kg, 15 min, read-out: Plasma Concentrations, Group A, B, C) and 329 ng/mL in series [2] (male, CD-1, mouse, plasma, iv, 5 mg/kg, 15 min, read-out: Plasma Concentrations, Mean). The same compound returned a C0 in series [2] (male, CD-1, mouse, plasma) of 2420 ng/mL. The compound also came in with a clearance in [2] (male, CD-1, mouse, plasma) of 58.7 mL/min/kg. Further, the Vd in series [2] (male, CD-1, mouse, plasma, read-out: Vss) was determined as 8.15 L/kg. Further, the “Plasma Concentrations, Group A, B, C” value is 1287 ng/mL and 1260 ng/mL in [2] (5 min, 5 mg/kg); 306 ng/mL and 407 ng/mL in series [2] (15 min, 5 mg/kg); 367 ng/mL and 279 ng/mL in series [2] (30 min, 5 mg/kg); 210 ng/mL and 137 ng/mL in [2] (1 hr, 5 mg/kg).
In turn, `C#Cc1cccc(Nc2ncnc3cc(OCCOC)c(OCCOC)cc23)c1` [Tarceva, erlotinib, reference compound] had a GI50 in series [3] of 1740 nM.
In the case of `Nc1ccn([C@@H]2CS[C@H](CO)O2)c(=O)n1` [Compound 3TC, 3TC, reference compound], in series [4], the “Antiviral Activity Percent inhibition of cell control” value is listed as 92.0% and the Interpretation entry is “Active”.
For `Cn1nnc2c(C(N)=O)ncn2c1=O` [Temodar ®, Temodar®, reference compound], in series [5], the Median survival was 29 and the “survival Range” value was 26-29. Besides, the “Average weight at endpoint” value in [6] came to 13.3 g.
With `CN1CCN(CCOc2ccc(-c3ccc(CC(=O)NCc4cccc(F)c4)nc3)c(F)c2)CC1` [KX2-394], the IC50 in [7] is 5000 nM; in [9], more than 48000 nM. Besides, in [8], the GI50 was 13 nM.
Regarding `CC(=O)O[C@H]1C(=O)[C@@]2(C)[C@H]([C@H](OC(=O)c3ccccc3)[C@]3(O)C[C@H](OC(=O)[C@H](O)[C@@H](NC(=O)c4ccccc4)c4ccccc4)C(C)=C1C3(C)C)[C@]1(OC(C)=O)CO[C@@H]1C[C@@H]2O` [taxol, paclitaxel, reference compound], in series [10], the GI50 is 3.9 nM.
As to `Nc1ccn([C@@H]2O[C@H](CO)[C@@H](O)C2(F)F)c(=O)n1` [Gemcitabine, gemcitabine, reference compound], the GI50 in series [11] amounted to 2 nM.
